Assay results as given in paper PMC12210912, “Pharmacologic properties and inhibitory activity of 6-azasteroids against Mycobacterium leprae in vivo and in vitro” (Microbiology Spectrum, 2025).
Read-outs that look alike come from different tables or passages of the source.

Columns and labels:
[1] = stability in human liver microsomes; format: in vitro ADME; conditions: both sexes
Method: Experiments were performed by Pharmaron, Inc., China. […] Negative control samples were prepared by replacing the NADPH solution with ultrapure H2O. The negative controls were used to exclude the confounding variable of test compound instability. Experiments involving NADPH were carried out in duplicate. Negative controls were prepared in singlet. Aliquots (90 µL) were taken at 0, 15, 30, 45, and 60 min of incubation. The microsomal reaction in each aliquot was stopped by the addition of four volumes of cold acetonitrile containing internal standards (100 nM alprazolam, 200 nM imipramine, 200 nM labetalol, and 2 µM ketoprofen). The samples were centrifuged at 3,220 × g for 40 min, and an aliquot (90 µL) of the supernatant was mixed with 90 µL of ultrapure H2O. The resulting mixture was used for liquid chromatography–tandem mass spectrometry (LC-MS/MS) analysis (Shimadzu and SCIEX Triple Quad 4500). Peak areas were determined from extracted ion chromatograms. A slope, k, was determined by linear regression analysis of a plot of the natural logarithm of the remaining percentage of the parent drug versus incubation time. The in vitro t1/2 (min) was determined from the slope: in vitro t1/2=−(0.693/k) In vitro t1/2 (min, mean of duplicate determinations) was converted to in vitro intrinsic clearance (in vitro Clint, μL/(min·µg protein)) by means of the following equation : in vitro Clint=(0.693/t1/2)×(volume of incubation (μL)/amount of protein (μg))

LXRα = biological target: T1, LXRα (Homo sapiens, UniProt Q13133); assay: LXRα radioligand binding inhibition; conditions: [3H]T0901317 binding, recombinant protein; for % inhibition observed, LXRα: 10 µM; for inhibition at 10 µM: read-out: % inhibition observed, LXRα
T1 construct: Eurofins (assay provider); host or cells: E. coli
T1 sequence (Q13133 1-447): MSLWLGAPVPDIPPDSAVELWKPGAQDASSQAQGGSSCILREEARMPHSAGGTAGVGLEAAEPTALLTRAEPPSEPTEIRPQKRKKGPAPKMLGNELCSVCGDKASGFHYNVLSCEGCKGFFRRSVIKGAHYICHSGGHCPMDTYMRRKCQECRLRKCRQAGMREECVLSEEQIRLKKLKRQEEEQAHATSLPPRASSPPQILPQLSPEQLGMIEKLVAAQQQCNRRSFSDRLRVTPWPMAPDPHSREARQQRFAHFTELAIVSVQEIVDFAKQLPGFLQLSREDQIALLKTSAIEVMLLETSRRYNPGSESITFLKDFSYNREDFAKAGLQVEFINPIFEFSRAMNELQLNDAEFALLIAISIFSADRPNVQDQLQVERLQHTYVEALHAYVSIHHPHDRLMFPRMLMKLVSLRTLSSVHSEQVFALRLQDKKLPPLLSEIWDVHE
Method: (§1) Four nuclear receptors: glucocorticoid, androgen, LXRα, and LXRβ were assayed. Inhibition of agonist binding to each of the receptors was carried out following a standard protocol by Eurofins, Inc., USA. Compounds were tested at 10 µM. Compound binding was measured by scintillation counting and was calculated as a % inhibition of the binding of a radioactively labeled ligand specific for each target. Percent inhibition of control specific binding was expressed as
(§2) 100−[(measured specific binding)/(control specific binding)∗100]
(§3) where measured specific binding is the amount of radioactive ligand binding obtained in the presence of test compounds.
(§4) (iii) LXRα (human) recombinant protein expressed in E. coli; agonist radioligand 20 nM [^3H] […] (iv) LXRβ (human) recombinant protein expressed in E. coli; agonist radioligand 20 nM [^3H]

THP-1 cells = conditions: cited from earlier work
LXRβ = biological target: T2, LXRβ (Homo sapiens, UniProt P55055); assay: LXRβ radioligand binding inhibition; conditions: [3H]T0901317 binding, recombinant protein; for % inhibition observed, LXRβ: 10 µM; for inhibition at 10 µM: read-out: % inhibition observed, LXRβ
T2 construct: Eurofins (assay provider); host or cells: E. coli
T2 sequence (P55055 1-460): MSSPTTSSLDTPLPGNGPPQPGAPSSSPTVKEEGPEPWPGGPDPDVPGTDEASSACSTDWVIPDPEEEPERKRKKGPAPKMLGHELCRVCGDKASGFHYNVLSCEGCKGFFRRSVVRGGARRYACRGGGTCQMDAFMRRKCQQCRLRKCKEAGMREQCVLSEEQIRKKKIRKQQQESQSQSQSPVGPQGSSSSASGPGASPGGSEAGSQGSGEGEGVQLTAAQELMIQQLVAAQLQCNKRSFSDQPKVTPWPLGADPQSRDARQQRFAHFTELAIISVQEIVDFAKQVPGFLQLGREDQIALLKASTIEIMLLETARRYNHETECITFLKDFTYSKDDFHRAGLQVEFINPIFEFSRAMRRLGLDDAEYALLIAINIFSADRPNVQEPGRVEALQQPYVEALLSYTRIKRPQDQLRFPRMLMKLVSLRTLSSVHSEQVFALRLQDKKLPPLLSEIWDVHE
Method: as §1, §2, §3, §4

[2] = human liver microsomes, pH 7.4, 1 μM, HLM 0.5 mg/mL, 37°C, 1 h, mean of duplicates, read-out: HLM stability t1/2

| SMILES | half-life at 1 µM ([1]; microsomes, pH 7.4, HLM stability t1/2) | % inhibition observed, LXRα (LXRα) | inhibition at 10 µM (LXRα) | IC50 (THP-1 cells; read-out: Mammalian cell IC50 Cytotoxicity THP1, THP-1 cells, 72 h, Alamar Blue) | % inhibition observed, LXRβ (LXRβ) | inhibition at 10 µM (LXRβ) | half-life at 1 µM [1, 2] | IC50 (THP-1 cells) | half-life at 1 µM ([1]; human liver microsomes, pH 7.4, as stated in text, read-out: half-life in human liver microsomes) |
| --- | --- | --- | --- | --- | --- | --- | --- | --- | --- |
| CC(C)(C)c1ccc(C(C)(C)C)c(NC(=O)C2CCC3C4CNC5=CC(=O)CC[C@]5(C)C4CC[C@]23C)c1 (stereo partly shown) [Compound 1] | 45 min | significantly inhibit binding | 53% | 18 µM | significantly inhibit binding | 72% |  |  |  |
| CCCN1CC2C3CCC(C(=O)Nc4cc(C(C)(C)C)ccc4C(C)(C)C)[C@@]3(C)CCC2[C@@]2(C)CCC(=O)C=C12 (stereo partly shown) [Compound 2] |  | significantly inhibit binding | 64% |  | significantly inhibit binding | 69% | 18 min | 24 µM |  |
| C[C@]12CCC3C(CNC4=CC(=O)CC[C@@]43C)C1CCC2C(=O)NC(c1ccc(F)cc1)c1ccc(F)cc1 (stereo partly shown) [Compound 5] |  | low binding | 11% |  | low binding | 26% | 443 min | 24 µM | > 360 min |
